Reference: ChEMBL document CHEMBL5608246, “Membrane-Targeting Amphiphilic Honokiol Derivatives Containing an Oxazole Moiety as Potential Antibacterials against Methicillin-Resistant Staphylococcus aureus” (J Med Chem, 2024)
≈ marks a conversion by molar mass, not a printed value. Calls of active or inactive are those of the source. No cut-off for these calls is given here.

How the values were obtained:
Cell membrane = assay: Induction of membrane permeability in methicillin resistant Staphylococcus aureus 20 at 32 ug/ml measured at 2 mins interval over 20 mins by SYTOX green staining based assay; conditions: dose 32.0 µg/ml
Staphylococcus aureus [1] = assay: Antibacterial activity against Staphylococcus aureus ATCC 29213 assessed as resistance development by measuring fold increase in MIC after 20 passages incubated for 16 to 18 hrs; format: functional; conditions: time 16-18 hrs
Staphylococcus aureus [2] = assay: Bactericidal activity against Staphylococcus aureus ATCC 29213 at 8 times MIC within 8 hrs by time kill assay; format: functional, organism-based
Staphylococcus aureus [3] = assay: Antibacterial activity against methicillin resistant Staphylococcus aureus 20 infected in Kunming mouse skin abscess model assessed as reduction in inflammatory cells in infection sites at 5 mg/kg, sc measured after 2 hrs; format: functional, organism-based
Staphylococcus aureus [4] = assay: Antibacterial activity against methicillin resistant Staphylococcus aureus 20 infected in Kunming mouse skin abscess model assessed as reduction in bacterial load at 5 mg/kg, sc measured after 2 hrs; format: functional; design: scale not given: the % may be the effect or the level left
Staphylococcus aureus [5] = assay: Antibacterial activity against methicillin resistant Staphylococcus aureus 20 infected in Kunming mouse skin abscess model assessed as reduction in TNF-alpha level at 5 mg/kg, sc measured after 2 hrs by ELISA; format: functional, organism-based
Staphylococcus aureus [6] = assay: Antibacterial activity against methicillin resistant Staphylococcus aureus 20 infected in Kunming mouse skin abscess model assessed as reduction in IL-6 level at 5 mg/kg, sc measured after 2 hrs by ELISA; format: functional, organism-based
[7] = Toxicity in Kunming mouse skin abscess model infected with methicillin resistant Staphylococcus aureus assessed as heart damage at 5 mg/kg, sc measured after 2 hrs by H and E staining based assay; format: organism-based; conditions: in vivo
[8] = Toxicity in Kunming mouse skin abscess model infected with methicillin resistant Staphylococcus aureus assessed as liver damage at 5 mg/kg, sc measured after 2 hrs by H and E staining based assay; format: organism-based; conditions: in vivo
[9] = Toxicity in Kunming mouse skin abscess model infected with methicillin resistant Staphylococcus aureus assessed as spleen damage at 5 mg/kg, sc measured after 2 hrs by H and E staining based assay; format: organism-based; conditions: in vivo
[10] = Toxicity in Kunming mouse skin abscess model infected with methicillin resistant Staphylococcus aureus assessed as lungs damage at 5 mg/kg, sc measured after 2 hrs by H and E staining based assay; format: organism-based; conditions: in vivo
[11] = Toxicity in Kunming mouse skin abscess model infected with methicillin resistant Staphylococcus aureus assessed as kidneys damage at 5 mg/kg, sc measured after 2 hrs by H and E staining based assay; format: organism-based; conditions: in vivo
Staphylococcus aureus [12] = assay: Antibacterial activity against Staphylococcus aureus ATCC 29213 incubated for 16 to 18 hrs by broth dilution method; format: functional; conditions: time 16-18 hrs
Staphylococcus aureus [13] = assay: Antibacterial activity against methicillin resistant Staphylococcus aureus N315 incubated for 16 to 18 hrs by broth dilution method; format: functional; conditions: time 16-18 hrs
Staphylococcus aureus [14] = assay: Antibacterial activity against methicillin resistant Staphylococcus aureus M11 incubated for 16 to 18 hrs by broth dilution method; format: functional; conditions: time 16-18 hrs
Staphylococcus aureus [15] = assay: Antibacterial activity against methicillin resistant Staphylococcus aureus M12 incubated for 16 to 18 hrs by broth dilution method; format: functional; conditions: time 16-18 hrs
Staphylococcus aureus [16] = assay: Antibacterial activity against methicillin resistant Staphylococcus aureus M13 incubated for 16 to 18 hrs by broth dilution method; format: functional; conditions: time 16-18 hrs
Staphylococcus aureus [17] = assay: Antibacterial activity against methicillin resistant Staphylococcus aureus M14 incubated for 16 to 18 hrs by broth dilution method; format: functional; conditions: time 16-18 hrs
Staphylococcus aureus [18] = assay: Antibacterial activity against methicillin resistant Staphylococcus aureus M16 incubated for 16 to 18 hrs by broth dilution method; format: functional; conditions: time 16-18 hrs
Staphylococcus aureus [19] = assay: Antibacterial activity against methicillin resistant Staphylococcus aureus M17 incubated for 16 to 18 hrs by broth dilution method; format: functional; conditions: time 16-18 hrs
Staphylococcus aureus [20] = assay: Antibacterial activity against methicillin resistant Staphylococcus aureus M20 incubated for 16 to 18 hrs by broth dilution method; format: functional; conditions: time 16-18 hrs
Staphylococcus aureus [21] = assay: Antibacterial activity against methicillin resistant Staphylococcus aureus M21 incubated for 16 to 18 hrs by broth dilution method; format: functional; conditions: time 16-18 hrs
Staphylococcus aureus [22] = assay: Antibacterial activity against methicillin resistant Staphylococcus aureus M22 incubated for 16 to 18 hrs by broth dilution method; format: functional; conditions: time 16-18 hrs
Staphylococcus aureus [23] = assay: Antibacterial activity against methicillin resistant Staphylococcus aureus M23 incubated for 16 to 18 hrs by broth dilution method; format: functional; conditions: time 16-18 hrs
Escherichia coli = assay: Antibacterial activity against Escherichia coli ATCC 25922 incubated for 16 to 18 hrs by broth dilution method; format: functional; conditions: time 16-18 hrs
[24] = Hemolytic activity in sheep RBC incubated for 1 hr; format: toxicity, cell-based, Ovis aries, Erythrocyte; conditions: sheep red blood cells (erythrocytes)
[25] = Selectivity index, ratio of HC50 for sheep RBC to MIC for Staphylococcus aureus ATCC 29213; format: toxicity; conditions: sheep red blood cells, read-out: Selectivity Index

Structure (SMILES) | MIC (Staphylococcus aureus [12]) [µg/mL] | MIC (Staphylococcus aureus [13]) [µg/mL] | MIC (Staphylococcus aureus [14]) [µg/mL] | MIC (Staphylococcus aureus [15]) [µg/mL] | MIC (Staphylococcus aureus [16]) [µg/mL] | MIC (Staphylococcus aureus [17]) [µg/mL] | MIC (Staphylococcus aureus [18]) [µg/mL] | MIC (Staphylococcus aureus [19]) [µg/mL] | MIC (Staphylococcus aureus [20]) [µg/mL] | MIC (Staphylococcus aureus [21]) [µg/mL] | MIC (Staphylococcus aureus [22]) [µg/mL] | MIC (Staphylococcus aureus [23]) [µg/mL] | MIC (Escherichia coli) [µg/mL] | HC50 at 1 h [24] [µg/mL] | selectivity ratio [25] | further results
CC[C@H](C)[C@H](NC(=O)CN)C(=O)NCC(=O)N[C@@H](C)C(=O)N[C@H](C(=O)N[C@@H](CC(C)C)C(=O)N[C@@H](CCCCN)C(=O)N[C@H](C(=O)N[C@@H](CC(C)C)C(=O)N[C@H](C(=O)N[C@H](C(=O)NCC(=O)N[C@@H](CC(C)C)C(=O)N1CCC[C@H]1C(=O)N[C@@H](C)C(=O)N[C@@H](CC(C)C)C(=O)N[C@H](C(=O)N[C@@H](CO)C(=O)N[C@@H](Cc1c[nH]c2ccccc12)C(=O)N[C@H](C(=O)N[C@@H](CCCCN)C(=O)N[C@@H](CCCNC(=N)N)C(=O)N[C@@H](CCCCN)C(=O)N[C@@H](CCCNC(=N)N)C(=O)N[C@@H](CCC(N)=O)C(=O)N[C@@H](CCC(N)=O)C(N)=O)[C@@H](C)CC)[C@@H](C)CC)[C@@H](C)O)[C@@H](C)O)C(C)C)C(C)C | – | – | – | – | – | – | – | – | – | – | – | – | – | – | – | Activity (Cell membrane): Active
CCn1cc(C(=O)O)c(=O)c2cc(F)c(N3CCNCC3)cc21 [NORFLOXACIN] | – | – | – | – | – | – | – | – | – | – | – | – | – | – | – | fold change (FC) (Staphylococcus aureus [1]): 128
CN[C@H](CC(C)C)C(=O)N[C@H]1C(=O)N[C@@H](CC(N)=O)C(=O)N[C@H]2C(=O)N[C@H]3C(=O)N[C@H](C(=O)N[C@H](C(=O)O)c4cc(O)cc(O)c4-c4cc3ccc4O)[C@H](O)c3ccc(c(Cl)c3)Oc3cc2cc(c3O[C@@H]2O[C@H](CO)[C@@H](O)[C@H](O)[C@H]2O[C@H]2C[C@](C)(N)[C@H](O)[C@H](C)O2)Oc2ccc(cc2Cl)[C@H]1O [VANCOMYCIN] | – | – | – | – | – | – | – | – | – | – | – | – | – | – | – | Activity (Staphylococcus aureus [2]): inactive; Activity (Staphylococcus aureus [3]): Active; Activity (Staphylococcus aureus [4]): 95.62%; Activity (Staphylococcus aureus [5]): Active; Activity (Staphylococcus aureus [6]): Active; Activity [7]: Non-Toxic; Activity [8]: Non-Toxic; Activity [9]: Non-Toxic; Activity [10]: Non-Toxic; Activity [11]: Non-Toxic
C=CCc1cc(-c2ccc(OCCC[N+](C)(C)CC(=O)NCCCC)c(CC=C)c2)c2oc(-c3cccc(OC)c3)nc2c1.[Br-] | 32 | 8 | 8 | 16 | 16 | 8 | 8 | 8 | 8 | 8 | 16 | 8 | > 128 | 307 | 9.6 | –
C=CCc1cc(-c2ccc(OCCC[N+](C)(C)CC(=O)NCCCC)c(CC=C)c2)c2oc(-c3ccc(Br)cc3Br)nc2c1.[Br-] | 128 | 64 | 32 | 16 | 16 | 32 | 16 | 64 | 16 | 16 | 32 | 32 | > 128 | 170 | 1.3 | –
C=CCc1cc(-c2ccc(OCCC[N+](C)(C)CC(=O)NCCCC)c(CC=C)c2)c2oc(-c3ccccc3)nc2c1.[Br-] | 8 | 16 | 2 | 2 | 2 | 4 | 4 | 1 | 2 | 2 | 2 | 2 | > 128 | > 160 | > 20 | –
C=CCc1ccc(O)c(-c2ccc(O)c(CC=C)c2)c1 [HONOKIOL] | 64 (≈ 240 µM) | 8 (≈ 30 µM) | 16 (≈ 60.1 µM) | 8 (≈ 30 µM) | 16 (≈ 60.1 µM) | 16 (≈ 60.1 µM) | 16 (≈ 60.1 µM) | 16 (≈ 60.1 µM) | 8 (≈ 30 µM) | 16 (≈ 60.1 µM) | 16 (≈ 60.1 µM) | 16 (≈ 60.1 µM) | > 128 | > 80 | > 1.25 | –
C=CCc1cc(-c2ccc(OCCC[N+](C)(C)CC(=O)NCCCC)c(CC=C)c2)c2oc(-c3ccccc3F)nc2c1.[Br-] | 4 | 8 | 4 | 4 | 4 | 4 | 4 | 4 | 4 | 8 | 4 | 4 | 128 | 110 | 27.4 | –
C=CCc1cc(-c2ccc(OCCC[N+](C)(C)CC(=O)NCCCC)c(CC=C)c2)c2oc(-c3cc(Br)cc(Br)c3)nc2c1.[Br-] | 128 | 128 | 128 | > 128 | > 128 | 128 | 128 | 128 | > 128 | 64 | 128 | 128 | 128 | 205 | 1.6 | –
